What was measured:
[1] = system: antibodies in sera from SARS patients (sera 1a, 1b, 2, 6, 37, 62, London, SARS-yellow, SARS-green); type: binding, human; set-up: Binding of serum 6 to linear peptides of protein X1 of SARS-CoV Urbani / Binding of serum 37 to linear peptides of protein X1 of SARS-CoV Urbani / Binding of serum 6 to looped/cyclic peptide (PEPSCAN-ELISA) / Binding of serum 37 to looped/cyclic peptide (PEPSCAN-ELISA) / Binding of serum 37 to looped/cyclic peptides of protein X1 of SARS-CoV Urbani / Binding of serum 6 to linear peptides of protein X2 / Binding of serum 37 to linear peptides of protein X2 / Binding of serum 37 to looped/cyclic peptides of protein X2 of SARS-CoV Urbani / Binding of serum 6 to linear peptides of protein M of SARS-CoV Urbani / Binding of serum 37 to linear peptides of protein M of SARS-CoV Urbani / Binding of serum 6 to looped/cyclic peptides of protein M of SARS-CoV Urbani / Binding of serum 37 to looped/cyclic peptides of protein M of SARS-CoV Urbani / Binding of serum 6 to linear peptides of protein X3 of SARS-CoV Urbani / Binding of serum 37 to linear peptides of protein X3 of SARS-CoV Urbani / Binding of serum 37 to looped/cyclic peptides of protein X3 of SARS-CoV Urbani / Binding of serum 6 to linear peptides of protein X4 of SARS-CoV Urbani / Binding of serum 37 to linear peptides of protein X4 of SARS-CoV Urbani / Binding of serum 37 to looped/cyclic peptides of protein X4 of SARS-CoV Urbani / Binding of serum 6 to linear peptides of protein X5 of SARS-CoV Urbani / Binding of serum 37 to linear peptides of protein X5 of SARS-CoV Urbani / Binding of serum 37 to looped/cyclic peptides of protein X5 of SARS-CoV Urbani / Binding of serum 6 to linear peptides of protein N of SARS-CoV Urbani / Binding of serum 37 to linear peptides of protein N of SARS-CoV Urbani / Binding of serum 6 to linear peptide (PEPSCAN-ELISA) / Binding of serum 1a to looped/cyclic peptides of protein N of SARS-CoV Urbani / Binding of serum 1b to looped/cyclic peptides of protein N of SARS-CoV Urbani / Binding of serum 2 to looped/cyclic peptides of protein N of SARS-CoV Urbani / Binding of serum 6 to looped/cyclic peptides of protein N of SARS-CoV Urbani / Binding of serum 37 to looped/cyclic peptides of protein N of SARS-CoV Urbani / Binding of serum 62 to looped/cyclic peptides of protein N of SARS-CoV Urbani / Binding of serum London to looped/cyclic peptides of protein N of SARS-CoV Urbani / Binding of serum SARS-green to looped/cyclic peptides of protein N of SARS-CoV Urbani: unit not given here
[2] = system: control sera (pooled serum of ten healthy LUMC hospital workers; commercial negative donor pooled serum from the Dutch bloodbank); type: binding, human; set-up: Binding of Control serum LUMC to linear peptides / Binding of Control serum Blood-bank to linear peptides / Binding of Control serum LUMC to looped peptides / Binding of Control Serum Blood-Bank to Looped peptides / Binding of Control serum LUMC to linear peptides of the protein M of SARS-CoV Urbani / Binding of Control serum Blood-bank to linear peptides of the protein M of SARS-CoV Urbani / Binding of Control serum LUMC to looped peptides of the protein M of SARS-CoV Urbani / Binding of Control Serum Blood-Bank to Looped peptides of the protein M of SARS-CoV Urbani: unit not given here
[3] = system: rabbit serum obtained by immunizing a rabbit with the SARS-CoV strain Frankfurt 1; type: binding; set-up: Binding of a rabbit serum to linear peptides / Binding of a rabbit serum to looped peptides / Rabbit serum linear peptides / Rabbit serum looped peptides / Binding of a rabbit serum to linear peptides of protein N of SARS-CoV Urbani (Rabbit serum linear peptides) / Binding of a rabbit serum to looped/cyclic peptides of protein N of SARS-CoV Urbani (Rabbit serum looped peptides): unit not given here

## PLFLIVAALVFLILC
[1]
  Binding of serum 1a to linear peptides of protein X4 of SARS-CoV Urbani: 0.5
  Binding of serum 1a to looped/cyclic peptides of protein X4 of SARS-CoV Urbani: 0.5
  Binding of serum 1b to linear peptides of protein X4 of SARS-CoV Urbani: 0.4
  Binding of serum 1b to looped/cyclic peptides of protein X4 of SARS-CoV Urbani: 0.1
  Binding of serum 2 to linear peptides of protein X4 of SARS-CoV Urbani: 0.3
  Binding of serum 2 to looped/cyclic peptides of protein X4 of SARS-CoV Urbani: 0.2
  Binding of serum 6 to linear peptides of protein X4 of SARS-CoV Urbani: 0.3
  Binding of serum 6 to looped/cyclic peptides of protein X4 of SARS-CoV Urbani: 0.5
  Binding of serum 37 to linear peptides of protein X4 of SARS-CoV Urbani: 0.6
  Binding of serum 37 to looped/cyclic peptides of protein X4 of SARS-CoV Urbani: 0.0
  Binding of serum 62 to linear peptides of protein X4 of SARS-CoV Urbani: 0.7
  Binding of serum 62 to looped/cyclic peptides of protein X4 of SARS-CoV Urbani: 0.1
  Binding of serum London to linear peptides of protein X4 of SARS-CoV Urbani: 0.6
  Binding of serum London to looped/cyclic peptides of protein X4 of SARS-CoV Urbani: 0.1
  Binding of serum SARS-green to linear peptides of protein X4 of SARS-CoV Urbani: 0.5
  Binding of serum SARS-green to looped/cyclic peptides of protein X4 of SARS-CoV Urbani: 0.2
  Binding of serum SARS-yellow to linear peptides of protein X4 of SARS-CoV Urbani: 0.4
  Binding of serum SARS-yellow to looped/cyclic peptides of protein X4 of SARS-CoV Urbani: 0.1
[2]
  Binding of Control Serum Blood-Bank to Looped peptides: 0.5
  Binding of Control serum Blood-bank to linear peptides: 0.4
  Binding of Control serum LUMC to linear peptides: 0.4
  Binding of Control serum LUMC to looped peptides: 0.5
[3]
  Rabbit serum linear peptides: 0.4
  Rabbit serum looped peptides: 0.0

## PLMESELVIGAVIIR
[1]
  Binding of serum 1a to linear peptides of protein M of SARS-CoV Urbani: 0.7
  Binding of serum 1a to looped/cyclic peptides of protein M of SARS-CoV Urbani: 0.7
  Binding of serum 1b to linear peptides of protein M of SARS-CoV Urbani: 0.6
  Binding of serum 1b to looped/cyclic peptides of protein M of SARS-CoV Urbani: 0.6
  Binding of serum 2 to linear peptides of protein M of SARS-CoV Urbani: 0.7
  Binding of serum 2 to looped/cyclic peptides of protein M of SARS-CoV Urbani: 0.7
  Binding of serum 6 to linear peptides of protein M of SARS-CoV Urbani: 0.4
  Binding of serum 6 to looped/cyclic peptides of protein M of SARS-CoV Urbani: 0.8
  Binding of serum 37 to linear peptides of protein M of SARS-CoV Urbani: 0.7
  Binding of serum 37 to looped/cyclic peptides of protein M of SARS-CoV Urbani: 0.8
  Binding of serum 62 to linear peptides of protein M of SARS-CoV Urbani: 0.5
  Binding of serum 62 to looped/cyclic peptides of protein M of SARS-CoV Urbani: 0.8
  Binding of serum London to linear peptides of protein M of SARS-CoV Urbani: 0.3
  Binding of serum London to looped/cyclic peptides of protein M of SARS-CoV Urbani: 0.2
  Binding of serum SARS-green to linear peptides of protein M of SARS-CoV Urbani: 0.5
  Binding of serum SARS-green to looped/cyclic peptides of protein M of SARS-CoV Urbani: 0.3
  Binding of serum SARS-yellow to linear peptides of protein M of SARS-CoV Urbani: 0.2
  Binding of serum SARS-yellow to looped/cyclic peptides of protein M of SARS-CoV Urbani: 0.7
[2]
  Binding of Control Serum Blood-Bank to Looped peptides of the protein M of SARS-CoV Urbani: 0.9
  Binding of Control serum Blood-bank to linear peptides of the protein M of SARS-CoV Urbani: 1.0
  Binding of Control serum LUMC to linear peptides of the protein M of SARS-CoV Urbani: 0.8
  Binding of Control serum LUMC to looped peptides of the protein M of SARS-CoV Urbani: 0.8
[3]
  Rabbit serum linear peptides: 0.2
  Rabbit serum looped peptides: 0.1

## PLRGTIVTRPLMESE
[1]
  Binding of serum 1a to linear peptides of protein M of SARS-CoV Urbani: 0.8
  Binding of serum 1b to linear peptides of protein M of SARS-CoV Urbani: 0.7
  Binding of serum 2 to linear peptides of protein M of SARS-CoV Urbani: 0.4
  Binding of serum 6 to linear peptides of protein M of SARS-CoV Urbani: 0.4
  Binding of serum 37 to linear peptides of protein M of SARS-CoV Urbani: 0.8
  Binding of serum 62 to linear peptides of protein M of SARS-CoV Urbani: 0.7
  Binding of serum London to linear peptides of protein M of SARS-CoV Urbani: 0.3
  Binding of serum SARS-green to linear peptides of protein M of SARS-CoV Urbani: 0.5
  Binding of serum SARS-yellow to linear peptides of protein M of SARS-CoV Urbani: 0.0
  Recognition of the peptide by sera of SARS-CoV infected individuals, and form (linear, looped/cyclic) in which it is recognized: recognized in looped/cyclic form
[2]
  Binding of Control Serum Blood-Bank to Looped peptides of the protein M of SARS-CoV Urbani: 0.5
  Binding of Control serum Blood-bank to linear peptides of the protein M of SARS-CoV Urbani: 0.6
  Binding of Control serum LUMC to linear peptides of the protein M of SARS-CoV Urbani: 0.3
  Binding of Control serum LUMC to looped peptides of the protein M of SARS-CoV Urbani: 0.8
[3]
  Rabbit serum linear peptides: 0.4
  Rabbit serum looped peptides: 0.4

## PNVQIHTIDGSSGVA
[1]
  Binding of serum 1a to linear peptides of protein X1 of SARS-CoV Urbani: 0.6
  Binding of serum 1a to looped/cyclic peptides of protein X1 of SARS-CoV Urbani: 0.4
  Binding of serum 1b to linear peptides of protein X1 of SARS-CoV Urbani: 0.4
  Binding of serum 1b to looped/cyclic peptides of protein X1 of SARS-CoV Urbani: 0.3
  Binding of serum 2 to linear peptides of protein X1 of SARS-CoV Urbani: 0.5
  Binding of serum 2 to looped/cyclic peptides of protein X1 of SARS-CoV Urbani: 0.2
  Binding of serum 6 to linear peptides of protein X1 of SARS-CoV Urbani: 0.4
  Binding of serum 6 to looped/cyclic peptides of protein X1 of SARS-CoV Urbani: 0.2
  Binding of serum 37 to linear peptides of protein X1 of SARS-CoV Urbani: 0.7
  Binding of serum 37 to looped/cyclic peptides of protein X1 of SARS-CoV Urbani: 0.3
  Binding of serum 62 to linear peptides of protein X1 of SARS-CoV Urbani: 0.6
  Binding of serum 62 to looped/cyclic peptides of protein X1 of SARS-CoV Urbani: 0.3
  Binding of serum London to linear peptides of protein X1 of SARS-CoV Urbani: 0.3
  Binding of serum London to looped/cyclic peptides of protein X1 of SARS-CoV Urbani: 0.2
  Binding of serum SARS-green to linear peptides of protein X1 of SARS-CoV Urbani: 0.2
  Binding of serum SARS-green to looped/cyclic peptides of protein X1 of SARS-CoV Urbani: 0.2
  Binding of serum SARS-yellow to linear peptides of protein X1 of SARS-CoV Urbani: 0.4
  Binding of serum SARS-yellow to looped/cyclic peptides of protein X1 of SARS-CoV Urbani: 0.2
[2]
  Binding of Control Serum Blood-Bank to Looped peptides: 0.5
  Binding of Control serum Blood-bank to linear peptides: 0.5
  Binding of Control serum LUMC to linear peptides: 0.6
  Binding of Control serum LUMC to looped peptides: 0.5
[3]
  Binding of a rabbit serum to linear peptides: 0.1
  Binding of a rabbit serum to looped peptides: 0.4

## PYNSVTDTIVVTEGD
[1]
  Binding of serum 1a to linear peptides of protein X1 of SARS-CoV Urbani: 0.5
  Binding of serum 1a to looped/cyclic peptides of protein X1 of SARS-CoV Urbani: 0.4
  Binding of serum 1b to linear peptides of protein X1 of SARS-CoV Urbani: 0.4
  Binding of serum 1b to looped/cyclic peptides of protein X1 of SARS-CoV Urbani: 0.3
  Binding of serum 2 to linear peptides of protein X1 of SARS-CoV Urbani: 0.4
  Binding of serum 2 to looped/cyclic peptides of protein X1 of SARS-CoV Urbani: 0.3
  Binding of serum 6 to linear peptides of protein X1 of SARS-CoV Urbani: 0.4
  Binding of serum 6 to looped/cyclic peptides of protein X1 of SARS-CoV Urbani: 0.1
  Binding of serum 37 to linear peptides of protein X1 of SARS-CoV Urbani: 0.5
  Binding of serum 37 to looped/cyclic peptides of protein X1 of SARS-CoV Urbani: 0.3
  Binding of serum 62 to linear peptides of protein X1 of SARS-CoV Urbani: 0.4
  Binding of serum 62 to looped/cyclic peptides of protein X1 of SARS-CoV Urbani: 0.3
  Binding of serum London to linear peptides of protein X1 of SARS-CoV Urbani: 0.2
  Binding of serum London to looped/cyclic peptides of protein X1 of SARS-CoV Urbani: 0.2
  Binding of serum SARS-green to linear peptides of protein X1 of SARS-CoV Urbani: 0.2
  Binding of serum SARS-green to looped/cyclic peptides of protein X1 of SARS-CoV Urbani: 0.5
  Binding of serum SARS-yellow to linear peptides of protein X1 of SARS-CoV Urbani: 0.3
  Binding of serum SARS-yellow to looped/cyclic peptides of protein X1 of SARS-CoV Urbani: 0.4
[2]
  Binding of Control Serum Blood-Bank to Looped peptides: 0.4
  Binding of Control serum Blood-bank to linear peptides: 0.4
  Binding of Control serum LUMC to linear peptides: 0.3
  Binding of Control serum LUMC to looped peptides: 0.4
[3]
  Binding of a rabbit serum to linear peptides: 0.1
  Binding of a rabbit serum to looped peptides: 0.3
